Results on one molecule are retold here after patent publication US20180344199A1, “OPTIMIZED PLACEMENT OF CANNULA FOR DELIVERY OF THERAPEUTICS TO THE BRAIN” (The Regents of the University of California, priority 2010, published 2018).

Values joined by “and” are separate entries in the source; they are usually repeats but may differ in a detail not shown here. Equal entries are not always repeated.

A short description of series [1]: CED infusion of GDL or free Gadoteridol into NHP putamen, real-time MRI distribution. The class given is in vivo, Rhesus macaques and Cynomolgus monkeys. As for the experimental part: Thirteen normal adult NHP, including 11 Rhesus macaques (7 male and 4 female, aged from 8 to 18 years; mean age 11.9 years, weight 4-9.4 kg) and 2 Cynomolgus monkeys (one male and one female, age 7 years for both; weight 5 and 7 kg respectively) were the subjects in the present study. Experimentation was performed according to the National Institutes of Health guidelines and to the protocols approved by the Institutional Animal Care and Use Committee at the University of California San Francisco (San Francisco, Calif.) and at Valley Biosystems (Sacramento, Calif.). Thirteen animals received a total of 25 intracranial infusion of GDL (2 mM) or free Gadoteridol (2 mM, Prohance; Bracco Diagnostics, Princeton, N.J.) into the putamen. Infusions were performed by previously established CED techniques for NHP (Bankiewicz, Eberling et al. 2000). GDL were prepared as previously described (Fiandaca, Varenika et al. 2008) (Krauze, McKnight et al. 2005).
Primates received a baseline MRI before surgery to visualize anatomical landmarks and to generate stereotactic coordinates of the proposed target infusion sites for each animals. NHPs underwent neurosurgical procedures to position the MRI-compatible guide cannula over the putamen. Each customized guide cannula was cut to a specified length, stereotactically guided to its target through a burr-hole created in the skull, and secured to the skull by dental acrylic. The tops of the guide cannula assemblies were capped with stylet screws for simple access during the infusion procedure. Animals recovered for at least 2 weeks before initiation of infusion procedures. Animals were anesthetized with isoflurane (Aerrane; Ohmeda Pharmaceutical Products Division, Liberty Corner, N.J.) during real-time MRI acquisition. Each animal's head was placed in an MRI-compatible stereotactic frame, and a baseline MRI was performed. Vital signs, such as heart rate and PO2, were monitored throughout the procedure.
Briefly, the infusion system consisted of a fused silica reflux-resistant cannula (Fiandaca, Varenika et al. 2008) (Krauze, McKnight et al. 2005) that was connected to a loading line (containing GDL or free Gadoteridol), an infusion line with oil, and another infusion line with trypan blue solution. A 1-ml syringe (filled trypan blue solution) mounted onto a micro-infusion pump (BeeHive, Bioanalytical System, West Lafayette, Ind.), regulated the flow of fluid through the system. Based on MRI coordinates, the cannula was mounted onto a stereotactic holder and manually guided to the targeted region of the brain through the previously placed guide cannula. The length of each infusion cannula was measured to ensure that the distal tip extended 3 mm beyond the length of the respective guide. This created a stepped design at the tip of the cannula to maximize fluid distribution during CED procedures and minimize reflux along the cannula tract. We refer to this transition from fused silica tip to a fused silica sheath as the “step”, and all positioning data is derived from the position of this step because of its unambiguous visibility on MRI.
After securing placement of the infusion cannula, the CED procedures were initiated with real-time MRI data being acquired (real-time convective delivery, RCD). We used the same infusion parameters for every NHP infused throughout the study. Infusion rates were as follows: 0.1 μl/min was applied when lowering cannula to targeted area and increased at 10-min intervals to 0.2, 0.5, 0.8, 1.0, and 2.0 μl/min. Approximately 15 min after infusion, the cannula was withdrawn from the brain. Four animals received multiple infusions. Each animal had at least a 4-week interval between each infusion procedure.
NHPs were sedated with a mixture of ketamine (Ketaset, 7 mg/kg, IM) and xylazine (Rompun, 3 mg/kg, IM). After sedation, each animal was placed in a MRI-compatible stereotactic frame. The ear-bar and eye-bar measurements were recorded, and an intravenous line was established. […]

Series [2] is described as follows: CED infusion of gadoteridol into NHP thalamus, real-time MRI distribution. It is filed as in vivo, Cynomolgus monkeys and Rhesus macaques.
The nature of series [3]: CED infusion of gadoteridol into NHP brainstem, real-time MRI distribution. It is filed as in vivo, Cynomolgus monkeys and Rhesus macaques.
A short description of series [4]: CED co-infusion of AAV2 vectors and Gd into NHP thalamus, MRI volume of Gd distribution. The settings on record: co-infused with AAV2-GDNF, Vi ~150 μL, n=5, mean±SEM.
Setting [5] is: 6 cases, good distribution with leakage.

Regarding `CC(O)CN1CCN(CC(=O)[O-])CCN(CC(=O)[O-])CCN(CC(=O)[O-])CC1.[Gd+3]` (centres unmarked) [Gadoteridol], the “final Vd in WMT, mean volume” value in series [1] (blue zone, 4 cases) was determined as 19.4±0.01 mm3; in series [1] (red zone, 13 cases) it was 66.8±0.01 mm^3. Moreover, the “infusion volume when leakage was first seen, mean” value in series [1] (blue zone, 4 cases) stood at 6.9 ± 0.9 µL; in series [1] (red zone, 13 cases) it was 7.9 ± 1.7 µL. Also, the “Vd in the putamen, mean volume” value in series [1] (step in blue zone, 4 cases) turned out to be 139.6±0.05 mm^3; in series [1] (step in green zone, 8 cases), 116.4±0.04 mm^3. Besides, the “Vd (putamen), mean volume” value in series [1] (step in red zone, 13 cases) was 62.1±0.01 mm3. The figures for the “Vd in the thalamus, mean volume” value in series [2] (setting [5]) and in series [2] (8 cases with excellent distribution) were 191.3±38.1 mm^3 and 405.6±66.6 mm^3, respectively. The “percent of Vd in the thalamus, mean” value in series [2] (setting [5]) is recorded as 89.0%±1.3%. The “Vd of leakage, mean volume” value in series [2] (6 cases, leakage into WMT / lenticular fasciculus) is recorded as 24.3±7.0 mm^3. Also, in series [2] (all 8 cases with excellent distribution), the “percent of Vd in the thalamus vs total Vd in thalamus and WMT” value is given as 100%. For the same molecule, the maximum distribution entry in series [2] (thalamus, for Vi 158 μl) is given as “around 660.3 mm^3”; in series [3] (brainstem, for Vi 212 μl) it was “around 695.6 mm^3”. Further, the distribution ratio in series [2] (thalamus, maximum distribution at Vi 158 μl) amounted to 417.9%; in series [3] (brainstem, maximum distribution at Vi 212 μl), 328.1%. In addition, the “Vd in the brainstem, mean volume” value in series [3] (8 infusions) amounted to 585.2±75.4 mm^3. Also, the “percent of Vd in the brainstem vs total Vd in brainstem and thalamus” value in series [3] (100% in 7 cases, 95.6% in one case, listed as Gd) was 100% and 95.6%. Also, the “Vd in thalamus (leakage)” value in series [3] (one brainstem case with leakage into thalamus at end of infusion) was 30.5 mm^3. The “ratio of Vd/Vi, mean” value in series [4] is reported as 4.68±0.33.
